Results reported in US20230386615A1, “BINDING SITE IN TYPE 1 RYANODINE RECEPTOR” (The Trustees of Columbia University in the City of New York, priority 2021, published 2023).
Blank lines part the entries; values can stand above or below the compound they belong to.

How the values were obtained:
RyR1-W996A [1] = target: T1, RyR1-W996A (Oryctolagus cuniculus, UniProt P11716, W996A); assay type: binding, rabbit
T1 construct: Each fragment was subcloned into a full length RyR1 construct in pcDNA3.1 vector; expressed in transfected cells; host or cells: HEK293 (also 293T/17) cells, pcDNA3.1

RyR1-W882A [2] = target: T2, RyR1-W882A (Oryctolagus cuniculus, UniProt P11716, W882A); conditions: radiolabeled ATP
[3] = system: HEK293 cells expressing mutant RyR1; test: Ca2+ imaging, caffeine-induced Ca2+ release; assay type: cell-based, rabbit; conditions: both mutants, 1 mM H2O2, 10 mM caffeine
purified RyR1 = target: T3, purified RyR1 (Oryctolagus cuniculus, UniProt P11716); test: 3H-S107 binding to purified RyR1 in absence and presence of 10 mM ATP; design: species or system rabbit
T3 construct: RyR1 was purified from rabbit skeletal muscle; from tissue

RyR1-W996A [4] = target: T1, RyR1-W996A; test: 3H-S107 binding, recombinant RyR1 HEK293 microsomes treated with PKA and H2O2; design: species or system rabbit
RyR1-W882A [5] = target: T2, RyR1-W882A; test: as above; design: Each fragment was subcloned into a full length RyR1 construct in pcDNA3.1 vector; expressed in transfected cells; host or cells: HEK293 (also 293T/17) cells, pcDNA3.1; species or system rabbit; conditions: W882A mutation
RyR1-WT [6] = target: T4, RyR1-WT (Oryctolagus cuniculus, UniProt P11716); test: as above; design: species or system rabbit
T4 construct: Each fragment was subcloned into a full length RyR1 construct in pcDNA3.1 vector; expressed in transfected cells; host or cells: HEK293 (also 293T/17) cells, pcDNA3.1

RyR1 [7] = target: T5, RyR1 (Oryctolagus cuniculus, UniProt P11716); test: 3H-S107 radioligand binding, skeletal SR microsomes untreated or treated with PKA and H2O2; design: species or system rabbit
T5 construct: from tissue; host or cells: rabbit skeletal muscle sarcoplasmic reticulum microsomes
Experimental: For PKA-phosphorylated channel experiments, […] of microsomes were in vitro phosphorylated with 40 units of PKA catalytic subunit (SigmaAldrich, Cat #P2645) for 30 min at 30° C. in the presence of the following buffer: 50 mM Tris/PIPES pH 7.0, 8 mM MgCl2, 1 mM MgATP, and 1 mM EGTA. The samples were then spun by centrifuge for 10 min at 100,000×g. The resulting pellets were washed four times with wash buffer (300 mM sucrose, 10 mM imidazole, pH 7.4) and aliquots were frozen in liquid nitrogen and stored at −80° C. Oxidation of RyR1 was induced by incubating microsomes with 1 mM H2O2 for 30 min at room temperature prior to washing.
Titrative ^3H-S107 binding, performed in the absence and presence of 10 mM NaATP, was initiated by addition of ^3H-S107 (10-10,000 nM final concentration) to 0.1 mg skeletal sarcoplasmic reticulum (SR) microsomes in binding buffer (50 mM Tris-HCl, pH 7.5, 150 mM NaCl, 25 mM MgCl2). […] All samples were incubated at room temperature for 30 min ^3H-S107 binding was stopped by addition of ice-cold binding buffer prior to filtration through GF/B Whatman filters pre-equilibrated with 0.015% PE. Filters were washed 3 times with 5 mL of wash buffer (10 mM MOPS, 200 mM NaCl, pH 7.4), dried, and counted. Data were normalized to ^3H-ryanodine binding. […].

RyR1-WT [8] = target: T4, RyR1-WT; assay type: binding, rabbit
RyR1 [9] = target: T5, RyR1; test: S107 binding in the presence of increasing concentrations of ATP or ADP; design: species or system rabbit
[10] = first section of TABLE 5, 10 mM ATP added
[11] = third section of TABLE 5, ADP in place of ATP

SMILES: Nc1ncnc2c1ncn2[C@@H]1O[C@H](COP(=O)(O)OP(=O)(O)OP(=O)(O)O)[C@@H](O)[C@H]1O [ATP, adenosine triphosphate]
- ATP binding, in words (RyR1-W996A [1]; W996A mutant): significantly reduced
- ATP binding, in words (RyR1-W882A [2]): maintained, although slightly reduced

SMILES: COc1ccc2c(c1)CN(Cc1ccc(C(=O)O)cc1)CCS2 [Compound 1, 4-[(7-methoxy-2,3-dihydro-1,4-benzothiazepin-4(5H)-yl)methyl]benzoic acid]
- caffeine-induced calcium release after oxidation [3]: unaffected

SMILES: COc1ccc2c(c1)CN(C)CCS2 [Compound S107]
- Bmax (purified RyR1; 10 mM ATP): 3.0 ± 0.2 mol S107/mol RyR1
- Kd (purified RyR1; 10 mM ATP): 152 ± 7 nM
- Bmax (purified RyR1; No ATP): 0.4 ± 1.0 mol S107/mol RyR1
- Kd (purified RyR1; No ATP): 147 ± 6 nM
- Kd (RyR1-W996A [4]): 250 ± 10 nM
- Bmax (RyR1-W996A [4]; RyR1-W996A, third section of TABLE 5, ADP in place of ATP): 2.0 ± 0.2 mol S107/mol RyR1
- 3H-S107 binding to the channel, in words (RyR1-W882A [5]): abolished
- Bmax (RyR1-WT [6]; [10]): 3.5 ± 0.3 mol S107/mol RyR1
- Kd (RyR1-WT [6]; [10]): 200 ± 11 nM
- Bmax (RyR1-WT [6]; [11]): 3.6 ± 0.3 mol S107/mol RyR1
- Kd (RyR1-WT [6]; [11]): 188 ± 12 nM
- Bmax (RyR1 [7]; PKA/H2O2 treated microsomes): 3.7 ± 0.2 mol S107/mol RyR1
- Kd (RyR1 [7]; PKA/H2O2 treated microsomes): 155 ± 9 nM
- Bmax (RyR1 [7]; Untreated microsomes): 0.4 ± 0.1 mol S107/mol RyR1
- Kd (RyR1 [7]; Untreated microsomes): 150 ± 7 nM

- ADP binding stoichiometry, in words (RyR1-W996A [1]; RyR1-W996A): greater than one molecule per channel
- stoichiometry (RyR1-WT [8]): 12 molecules per channel
- competition with S107 binding (RyR1 [9]): significant inhibitory effect
SMILES: Nc1ncnc2c1ncn2[C@@H]1O[C@H](COP(=O)(O)OP(=O)(O)O)[C@@H](O)[C@H]1O [ADP, adenosine diphosphate]
